Assay results: patent US20220088115A1, “PHARMACEUTICAL COMPOSITION, COMPRISING INHIBITORY PEPTIDE AGAINST FAS SIGNALING, FOR PREVENTION OR TREATMENT OF OBESITY, FATTY LIVER, OR STEATOHEPATITIS” (SIGNET BIOTECH INC., priority 2018, published 2022)

Experiments:
[1] = tested on: obesity model mice; assay: TUNEL staining of dead cells, obesity model mice, intravenous FBP-8; assay type: in vivo, C57BL/6 mice; conditions: intravenous twice a week for 5 weeks
Protocol: (§1) All animal experiments performed for the present invention were approved by the Institutional Animal Care and Use Committee of Hanyang University. […] Thereafter, depending on the experimental group, 60 μg/one time of FBP8 were administered by intravenous injection twice a week for a total of 5 weeks (FIG. 13), or FBP7 was administered by subcutaneous injection twice a day.
Furthermore, a terminal deoxynucleotidyl transferase dUTP nick end labeling (TUNEL) analysis for each tissue was performed with an in situ cell death detection kit (Millipore, USA). Thereafter, the fluorescence signals were analyzed under a TCS-SP5 confocal microscope by staining the nuclei with Hoechst 33342, and the fluorescence signals of each cell were analyzed with the Image J program.
(§2) Obesity model mice were produced by feeding normal mice a high fat diet for 8 weeks, and FBP-8 was administered by intravenous injection twice a week for a total of 5 weeks (FIG. 13). After five weeks, the obesity model mice were sacrificed to isolate white adipose tissues and liver tissues and analyze the proportion of dead cells by TUNEL staining.

[2] = tested on: obesity model mice; assay: Liver morphology, weight and histological analysis, obesity model mice, intravenous FBP-8; assay type: in vivo, C57BL/6 mice
Protocol: as §1
(§3) Liver tissue and white adipose tissue sections were stained with hematoxylin & eosin and then histologically analyzed under an optical microscope.

[3] = tested on: obesity model mice; assay: Glucose tolerance test (GTT) and insulin tolerance test (ITT), obesity model mice, intravenous FBP-8; assay type: in vivo, C57BL/6 mice
Protocol: as §1
For a glucose intolerance analysis, a dose of 2 g/kg of glucose was injected by intraperitoneal injection into each experimental group maintained in a fasting state for 12 hours, and blood glucose levels were measured after 30, 60 and 120 minutes by Accu-check (Roche, USA).
Insulin resistance was analyzed by measuring blood glucose levels 30 minutes, 60 minutes and 120 minutes after a dose of 0.75 U/kg of insulin was injected by intraperitoneal injection into each experimental group maintained in a fasting state for 4 hours.

[4] = tested on: obesity model mice; assay: Daily food intake and body weight change, obesity model mice, intravenous FBP-8; assay type: in vivo, C57BL/6 mice
Protocol: as §1, §2

[5] = tested on: 3T3L1 cell line; assay: Free fatty acid (FFA) release into 3T3L1 cell culture solution; assay type: cell-based, murine; conditions: 3T3L1 treated with FasL and FBP-8
Protocol: (§4) The 3T3L1 cell line was cultured in a DMEM culture medium containing 10% FBS, 1% penicillin, 1% streptomycin, and 25 mM glucose. The 3T3L1 cell line was aliquoted into the above DMEM culture solution at a concentration of 2×10^5 cells/ml to induce adipocyte maturation for 3 days, and then replaced with a culture solution containing insulin to induce adipocyte maturation again for 3 days. Thereafter, the 3T3L1 cell line was further cultured in the above DMEM culture solution for 2 days to achieve complete maturation of adipocytes.

[6] = tested on: 3T3L1 cell line; assay: Inflammation-related cytokines in 3T3L1 cell culture solution (ELISA); assay type: cell-based, murine; conditions: 3T3L1 treated with FasL and FBP-8
Protocol: as §4
(§5) The cytokine levels of serum and tissues were analyzed with an ELISA kit (eBioscience, USA), and the triglyceride levels of liver tissues were confirmed with a triglyceride assay kit (Cayman, USA).

[7] = tested on: obesity model mice; assay: Blood fatty acid, insulin, triglyceride, ALT and liver triglyceride, obesity model mice, intravenous FBP-8; assay type: in vivo, C57BL/6 mice
Protocol: as §1, §5

[8] = tested on: obesity model mice; assay: Gene expression in white adipose and liver tissues, obesity model mice, intravenous FBP-8; assay type: in vivo, C57BL/6 mice
Protocol: as §1
mRNA was extracted from liver tissues and white adipose tissues using RNAiso (Takara, Japan), and cDNA was synthesized with an iscript cDNA synthesis kit (Bio-Rad Laboratories, USA). Thereafter, a gene expression level was analyzed by the 7500 Fast Real-time PCR system (Applied Biosystems, USA). The expression level of each gene was normalized with the expression level of a GAPDH gene, and then calculated as a relative gene expression level with respect to the control.
as §2

[9] = tested on: 3T3L1 cell line; assay: Cytotoxicity by CCK-8 analysis kit in 3T3L1 cell line; assay type: cell-based, murine; conditions: differentiated 3T3L1 cell lines, 100 μM to 1000 μM, 24 hours
Protocol: as §4
The cytotoxicity experiments of the peptides described in 1. above were performed by a CCK-8 analysis kit (Dojindo Laboratories, Japan). The 3T3L1 cell line was treated with peptides at various concentrations (uM) and cytotoxicity was analyzed after 24 hours.

[10] = Delivery of fluorescently labeled peptide to organs of normal body weight mice; assay type: in vivo; conditions: intravenous (IV) or subcutaneous (SC) injection, 12 hours
[11] = tested on: obesity model mice; assay: Crown-like structure (CLS) in white adipose tissues, obesity model mice, intravenous FBP-8; assay type: in vivo, C57BL/6 mice; conditions: compared to negative control (CtrFBP)
Protocol: as §1, §3

[12] = tested on: 3T3L1 cell line; assay: Apoptosis level in 3T3L1 cell line treated with FasL and peptide (annexin V flow cytometry); assay type: cell-based, murine; conditions: differentiated 3T3L1 treated with Fas ligand and peptide
Protocol: as §4
The 3T3L1 cell line was treated with a Fas ligand (FasL) at a concentration of 500 ng/ml to induce apoptosis, and FBP signal blocking peptides (FBP-8. FBP-A and FBP-7) and CtrFBP bound to Alexa647 were treated, respectively. After 4 hours of peptide treatment, cells were washed with DPBS and treated with FITC-bound annexin V (BD Pharmingen) to analyze the apoptosis inhibitory effect by a flow cytometer.

[13] = target: T1, Fas (Homo sapiens, UniProt P25445); assay: Binding of Alexa647-labeled peptides to Fas-expressing Jurkat cell line; conditions: Jurkat cell line always expressing Fas; Alexa647-labeled peptide
T1 construct: A Jurkat cell line, in which Fas is always expressed; host or cells: Jurkat
T1 sequence (P25445 26-335): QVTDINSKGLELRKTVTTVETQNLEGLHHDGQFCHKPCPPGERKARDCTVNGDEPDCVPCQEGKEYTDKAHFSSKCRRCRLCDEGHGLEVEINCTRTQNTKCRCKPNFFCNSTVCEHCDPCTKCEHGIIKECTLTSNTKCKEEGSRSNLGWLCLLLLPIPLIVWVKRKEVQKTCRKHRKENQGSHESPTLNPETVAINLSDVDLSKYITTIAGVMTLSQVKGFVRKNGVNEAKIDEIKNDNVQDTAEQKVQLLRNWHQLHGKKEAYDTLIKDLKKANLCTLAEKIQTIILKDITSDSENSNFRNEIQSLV
Protocol: A Jurkat cell line which is a human blood cancer cell line and a 3T3L1 cell line which is a murine adipocyte were purchased from ATCC (USA), and the Jurkat cell line was cultured in an RPMI culture medium containing 10% fetal bovine serum (FBS), 1% penicillin, 1% streptomycin, and 25 mM glucose.
A Jurkat cell line, in which Fas is always expressed, was treated with an FITC-labeled Fas antibody and treated with Alexa647-labeled FBP-8, FBP-A, FBP-7 or control peptide (YCNSTVCY; CtrFBP).

[14] = compared to negative control (CtrFBP)

With “YCDEHFCY (Fas binding peptide-8 (FBP-8))” the “proportion of dead cells in liver tissue (TUNEL)” value [1] was 9±2.37%, the “proportion of dead cells in white adipose tissue (TUNEL)” value [1] was 31+2.37% and the “damage to the liver tissue (histological analysis)” value [2] was “inhibited”. The “size of the liver tissue” value [2, 14] was “smaller”, the “weight of the liver tissue” value [2, 14] was “lighter” and the “blood glucose changes / glucose metabolism in GTT and ITT” value [3] was “improved glucose metabolism”. The daily food intake [4] was “no significant change”, the body weight gain [4, 14] was “slower” and the “extracellular release of fatty acids (FFA)” value [5] was “significantly inhibited”. For the same sequence, the “concentrations of IL-6 and MCP-1 in the cell culture solution” value [6] was “reduces”, the “reduction of triglyceride (TG) concentration in blood” value [7] was “about 25%” and the “reduction of triglyceride (TG) concentration in the liver tissue” value [7] was “about 50%”. The “decrease of fatty acid concentration in blood” value [7, 14] was “about 20%”, the “decrease of insulin concentration in blood” value [7, 14] was “about 20%” and the “reduction of blood alanine aminotransferase (ALT) level” value [7, 14] was no less than 30%. The “expression level of CD206 (anti-inflammatory macrophage marker) in liver tissues” value [8] was “no significant change”, the “expression levels of F480 and CD11c (pro-inflammatory macrophage markers) in white adipose tissue” value [8, 14] was “significantly reduced” and the “expression levels of F480 and CD11c in liver tissues” value [8, 14] was “decreased”. The “expression levels of inflammation-related genes Fas, TNF-α, MCP-1 and IL-6 in liver tissues” value [8, 14] was “significantly reduced”, the “expression of inflammation-related genes Fas, TNF-α, MCP-1 and IL-6 in white adipose tissues” value [8, 14] was “reduced” and the “reduction of stearoyl-CoA desaturase (SCD-1) expression level in liver tissues” value [8, 14] was “about 30+5.32%”. The cytotoxicity [9] was “little cytotoxicity was observed”, the “fluorescence signal in the liver tissue of normal mice” value [10] was “a significant fluorescence signal could not be observed” and the “crown-like structure (CLS) in white adipose tissues” value [11] was “remarkably reduced”. The apoptosis level [12] was 14±2.98% and the “binding to Jurkat cells (Alexa647 signal)” value [13] was “bound to Jurkat cells at similar levels”.
